From US20090274698A1, “Combination anti-cancer therapy” (priority 2007, published 2009)

Tests used:
pAkt = assay: Western blot of pAkt in a panel of cell lines from various tumor types; format: cell-based, human
Procedure: (§1) Cell extracts were prepared by detergent lysis (50 mM Tris-HCl, pH 8.0, 150 mM NaCl, 1% NP-40, 0.5% sodium deoxycholate, 0.1% SDS, containing protease inhibitor (P8340, Sigma, St. Louis, Mo.) and phosphatase inhibitor (P5726, Sigma, St. Louis, Mo.) cocktails. The soluble protein concentration was determined by micro-BSA assay (Pierce, Rockford Ill.). Protein immunodetection was performed by electrophoretic transfer of SDS-PAGE separated proteins to nitrocellulose, incubation with antibody, and chemiluminescent second step detection (PicoWest; Pierce, Rockford, Ill.). The antibodies included: phospho-Akt(473), phospho-Akt(308), and total Akt. All antibodies were obtained from Cell Signaling Technology, Inc. (Danvers, Mass.). For analysis of an agent's effect on the phosphorylation of downstream signaling proteins, cell lines were grown to approximately 70% confluency, at which time the indicated agent was added at the indicated concentration, and cells were incubated at 37° C. for 24 hours. The media was removed, cells were washed two times with PBS, and cells were lysed as previously described.

tumor cell lines = assay: Anti-proliferative activity across tumor cell lines (statement of the description); format: cell-based
[1] = test system: pAkt-S473 in ovarian carcinoma cell lines (Ovcar3, SKov3, MDAH 2774, CaOV3); assay: Western blot of phospho-Akt(S473) in ovarian carcinoma cell lines, cisplatin study (FIG. 8); conditions: 10 nM rapamycin, 20 μM Compound A, 30 μM cisplatin, 24 hours
Procedure: Band density was determined and relative levels of phospho-Akt(S473) are expressed graphically relative to DMSO-treated control lysate. Four ovarian cell lines were assayed (A) Ovcar3, (B) SKov3, (C) MDAH 2774, (D) CaOV3.
as §1

MDA-MB-231 cells = assay: Apoptosis (Caspase 3/7 Glo) in MDA-MB-231 cells; format: cell-based, human; conditions: MDA-MB-231, 24 hours, Caspase 3/7 activity
Procedure: Apoptosis was measured 24 hrs after treatment. […] Measurements were made 24 hours after treatments, and apoptosis was evaluated by fold induction in Caspase 3/7 activity.

[2] = test system: pAkt (Ser 473) in MDA-MB-231 tumor cells; assay: Western blot of pAkt (Ser 473) in MDA-MB-231 tumor cells; conditions: MDA-MB-231, 24 hours
Procedure: Cells were treated for 24 hours prior to harvesting lysates. Ctrl=control.
as §1

[3] = test system: pAkt (serine 473) in ovarian tumor cells; assay: Western blot of pAkt (serine 473) in ovarian cell lines, gemcitabine study (FIG. 11A); format: cell-based, human; conditions: gemcitabine 1 μM, Compound B 10 μM, rapamycin 10 nM, 24 hours
Procedure: as §1

[4] = test system: pAkt (Ser 473) in Ovcar3 cells; assay: Western blot of pAkt (Ser 473) in Ovcar3 cells (FIG. 9, 10); format: cell-based, human; conditions: Ovcar3, 24 hours; 10 nM rapamycin, 10 μM irinotecan
From the text: FIG. 9. Compound B inhibits irinotecan-induced Akt phosphorylation and enhances irinotecan-induced apoptosis in ovarian tumor cells. […] Phospho-Akt was detected using an antoibody specific to Serine 473. […] Apoptosis is expressed as the fold increase in induction relative to DMSO-treated cells.
FIG. 10. Compound B inhibits doxorubicin-induced Akt phosphorylation and enhances doxorubicin-induced apoptosis in ovarian tumor cells. […] Phospho-Akt was detected using an antibody specific to Serine 473. […] Apoptosis is expressed as the fold increase in induction relative to DMSO-treated cells.

CO[C@H]1C[C@@H]2CC[C@@H](C)[C@@](O)(O2)C(=O)C(=O)N2CCCC[C@H]2C(=O)O[C@H]([C@H](C)C[C@@H]2CC[C@@H](O)[C@H](OC)C2)CC(=O)[C@H](C)/C=C(\C)[C@@H](O)[C@@H](OC)C(=O)[C@H](C)C[C@H](C)/C=C/C=C/C=C/1C [Rapamycin]
tumor cells tested in which pAKT is induced (pAkt; Table 2): ~62%
cancer cell lines in which pAkt (S473) is inhibited (pAkt; statement of the description): ~20%
cell lines in which treatment increases pAkt (S473) (pAkt; statement of the description): ~65%
cell lines in a given tumor type that are insensitive (anti-proliferative activity) (tumor cell lines): approximately 50%

N.N.[Cl][Pt][Cl] [cisplatin]
effect on pAkt-S473, single agent [1]: promotes an increase in Akt phosphorylation

COc1cccc2c1C(=O)c1c(O)c3c(c(O)c1C2=O)C[C@@](O)(C(=O)CO)C[C@@H]3O[C@H]1C[C@H](N)[C@H](O)[C@H](C)O1 [doxorubicin]
induction in apoptosis, single agent (MDA-MB-231 cells): no significant induction in apoptosis
effect on pAkt-S473, single agent [2]: promotes an increase in Akt phosphorylation

Nc1ccn([C@@H]2O[C@H](CO)[C@@H](O)C2(F)F)c(=O)n1 [gemcitabine]
effect on Akt phosphorylation (serine 473), single agent [3]: increased Akt phosphorylation on serine 473

CCc1c2c(nc3ccc(OC(=O)N4CCC(N5CCCCC5)CC4)cc13)-c1cc3c(c(=O)n1C2)COC(=O)[C@]3(O)CC [irinotecan]
effect on pAkt levels, single agent [4]: causes an induction in pAkt levels
